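These data come from cells grown in 96-well plates and exposed to compound for 48 hours at five concentrations. At the GI50, growth is halved.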 Active and inactive are the calls of the source. Cut-off read from the data, not from the text of the source: active = GI50 up to about 1.1 µM and inactive = higher.
Experiments:
Test in all cases: growth of human tumour cells (NCI), 48 h
[1] = tested on: T47D
[2] = tested on: UO-31
[3] = tested on: HCT-116
[4] = tested on: K562
[5] = tested on: A498
[6] = tested on: HT-29
[7] = tested on: HCT-15
[8] = tested on: UACC-257
[9] = tested on: SK-MEL-2
[10] = tested on: OVCAR-8
[11] = tested on: Hs-578T
[12] = tested on: SF-268
[13] = tested on: SK-MEL-5
[14] = tested on: KM12
[15] = tested on: U-251
[16] = tested on: OVCAR-3
[17] = tested on: SK-OV-3
[18] = tested on: NCI/ADR-RES
[19] = tested on: HOP-92

Row | Compound | GI50 [1] | GI50 [2] | GI50 [3] | GI50 [4] | GI50 [5] | GI50 [6] | GI50 [7] [µM] | GI50 [8] | GI50 [9] | GI50 [10] | GI50 [11] | GI50 [12] | GI50 [13] | GI50 [14] | GI50 [15] | GI50 [16] | GI50 [17] | GI50 [18] | GI50 [19]
1 | O=C(O)c1cc(-c2ccc3cc(O)c(O)cc3c2)ccc1O | > 12.5 µM (inactive) | > 12.5 µM (inactive) | > 12.5 µM (inactive) | > 12.5 µM (inactive) | > 12.5 µM (inactive) | > 12.5 µM (inactive) | > 12.5 | > 12.5 µM (inactive) | > 12.5 µM (inactive) | > 12.5 µM (inactive) | > 12.5 µM (inactive) | > 12.5 µM (inactive) | > 12.5 µM (inactive) | > 12.5 µM (inactive) | > 12.5 µM (inactive) | > 12.5 µM (inactive) | > 12.5 µM (inactive) | > 12.5 µM (inactive) | –
2 | Oc1ccc(C(c2ccc(O)cc2)c2ccc(O)cc2)cc1 | 9.27 µM (inactive) | 18.4 µM (inactive) | 16.8 µM (inactive) | – | 15.8 µM (inactive) | 19 µM (inactive) | 23.9 | 20.4 µM (inactive) | 19.8 µM (inactive) | 15.6 µM (inactive) | 21.7 µM (inactive) | 32.1 µM (inactive) | 13.8 µM (inactive) | 16.7 µM (inactive) | 23.2 µM (inactive) | – | 14 µM (inactive) | 18.9 µM (inactive) | 18.1 µM (inactive)
3 | Nc1ccc(I)cn1 | > 100 µM (inactive) | > 100 µM (inactive) | > 100 µM (inactive) | > 100 µM (inactive) | > 100 µM (inactive) | > 100 µM (inactive) | > 100 | – | > 100 µM (inactive) | > 100 µM (inactive) | > 100 µM (inactive) | > 100 µM (inactive) | > 100 µM (inactive) | > 100 µM (inactive) | > 100 µM (inactive) | > 100 µM (inactive) | > 100 µM (inactive) | > 100 µM (inactive) | –
4 | OCC1OC(O)C(/N=C\c2ccc3c(c2)OCO3)C(O)C1O (stereo not given) | > 100 µM (inactive) | > 100 µM (inactive) | > 100 µM (inactive) | – | > 100 µM (inactive) | > 100 µM (inactive) | > 100 | > 100 µM (inactive) | > 100 µM (inactive) | > 100 µM (inactive) | > 100 µM (inactive) | > 100 µM (inactive) | > 100 µM (inactive) | > 100 µM (inactive) | > 100 µM (inactive) | > 100 µM (inactive) | > 100 µM (inactive) | > 100 µM (inactive) | > 100 µM (inactive)
5 | COC1CC2C=CC3C4OC2(/C(C)=C/C(C)C(C(C)O)OC1=O)C3C(O)C(C)C4OC(=O)c1ccc[nH]1 (stereo not given) | > 100 µM (inactive) | > 100 µM (inactive) | 49.3 µM (inactive) | – | > 100 µM (inactive) | 66.8 µM (inactive) | 92.5 | 57.8 µM (inactive) | > 100 µM (inactive) | 48.9 µM (inactive) | 94 µM (inactive) | > 100 µM (inactive) | 38.2 µM (inactive) | 21 µM (inactive) | 96.2 µM (inactive) | > 100 µM (inactive) | – | 66.2 µM (inactive) | > 100 µM (inactive)
6 | O=C(CC(=O)N1N=C(N2c3ccccc3Sc3ccccc32)CC1c1ccccc1)Nc1ccccc1Cl (stereo not given) | > 100 µM (inactive) | > 100 µM (inactive) | > 100 µM (inactive) | > 100 µM (inactive) | > 100 µM (inactive) | > 100 µM (inactive) | > 100 | > 100 µM (inactive) | > 100 µM (inactive) | > 100 µM (inactive) | > 100 µM (inactive) | > 100 µM (inactive) | > 100 µM (inactive) | > 100 µM (inactive) | > 100 µM (inactive) | > 100 µM (inactive) | – | > 100 µM (inactive) | > 100 µM (inactive)
7 | C=CC(=O)Nc1ccc(NC(=O)C=C)c2c1C(=O)c1ccccc1C2=O | > 100 µM (inactive) | 46.1 µM (inactive) | 62.8 µM (inactive) | 15.7 µM (inactive) | > 100 µM (inactive) | 45.5 µM (inactive) | 41.9 | > 100 µM (inactive) | 69.3 µM (inactive) | 27.7 µM (inactive) | > 100 µM (inactive) | – | 60.1 µM (inactive) | 12 µM (inactive) | 20.9 µM (inactive) | 35.6 µM (inactive) | – | > 100 µM (inactive) | –
8 | CN(C)C(=O)CO/N=C1/C(=C2/C(=O)Nc3ccccc32)Nc2ccccc21 | > 100 µM (inactive) | > 100 µM (inactive) | 94.8 µM (inactive) | > 100 µM (inactive) | – | > 100 µM (inactive) | > 100 | > 100 µM (inactive) | > 100 µM (inactive) | > 100 µM (inactive) | > 100 µM (inactive) | > 100 µM (inactive) | 37.3 µM (inactive) | 0.032 µM (active) | 26.6 µM (inactive) | > 100 µM (inactive) | > 100 µM (inactive) | > 100 µM (inactive) | > 100 µM (inactive)
9 | O=C(Nc1ccc(C(F)(F)F)cc1[N+](=O)[O-])c1cccnc1 | > 100 µM (inactive) | 8.85 µM (inactive) | 7.24 µM (inactive) | 2.45 µM (inactive) | 18.3 µM (inactive) | 2.04 µM (inactive) | 2.91 | 5.71 µM (inactive) | 4.21 µM (inactive) | – | 6.53 µM (inactive) | 4.07 µM (inactive) | 4.06 µM (inactive) | 2.57 µM (inactive) | 5 µM (inactive) | 2.41 µM (inactive) | 6.35 µM (inactive) | 6.9 µM (inactive) | –
10 | CC(=O)OCC(OC(C)=O)C(OC(C)=O)C(OC(C)=O)C(C=NN(C(C)=O)S(=O)(=O)c1ccc(/C=C2\NC(=O)NC2=O)cc1)OC(C)=O (stereo not given) | > 100 µM (inactive) | > 100 µM (inactive) | > 100 µM (inactive) | > 100 µM (inactive) | > 100 µM (inactive) | > 100 µM (inactive) | > 100 | > 100 µM (inactive) | > 100 µM (inactive) | > 100 µM (inactive) | > 100 µM (inactive) | > 100 µM (inactive) | > 100 µM (inactive) | > 100 µM (inactive) | > 100 µM (inactive) | > 100 µM (inactive) | > 100 µM (inactive) | > 100 µM (inactive) | –
11 | N#Cc1sc2c(c1OC(=O)c1ccc(C(F)(F)F)cc1)c(=O)n(-c1ccccc1)c(=S)n2-c1ccccc1 | 34.5 µM (inactive) | – | 17.8 µM (inactive) | 28.2 µM (inactive) | 26.7 µM (inactive) | 25.2 µM (inactive) | 21.8 | 42.7 µM (inactive) | – | 23.2 µM (inactive) | 26.2 µM (inactive) | 33 µM (inactive) | 24.9 µM (inactive) | 27.7 µM (inactive) | 20.7 µM (inactive) | 19.5 µM (inactive) | 38.5 µM (inactive) | 27.9 µM (inactive) | 19.7 µM (inactive)
12 | CCCCCCCCCCCCP(=O)(O)OCC(N)C(=O)O (stereo not given) | > 100 µM (inactive) | 12.3 µM (inactive) | 13.3 µM (inactive) | 39.4 µM (inactive) | 23.5 µM (inactive) | 33.7 µM (inactive) | 17.5 | > 100 µM (inactive) | 27.9 µM (inactive) | 35.5 µM (inactive) | 20.2 µM (inactive) | 23.9 µM (inactive) | 32.5 µM (inactive) | – | 11.4 µM (inactive) | 18.7 µM (inactive) | 21.6 µM (inactive) | 31.4 µM (inactive) | 25.4 µM (inactive)
13 | COC(=O)/C(=N\NC(=S)NN)C(C(=O)OC)C(=O)C(=O)Nc1cccc(C(F)(F)F)c1 (stereo not given) | > 100 µM (inactive) | > 100 µM (inactive) | > 100 µM (inactive) | – | > 100 µM (inactive) | > 100 µM (inactive) | > 100 | > 100 µM (inactive) | > 100 µM (inactive) | > 100 µM (inactive) | > 100 µM (inactive) | > 100 µM (inactive) | > 100 µM (inactive) | > 100 µM (inactive) | > 100 µM (inactive) | > 100 µM (inactive) | > 100 µM (inactive) | > 100 µM (inactive) | > 100 µM (inactive)
14 | Cc1ccc2c(c1)-c1nc(N)c(C#N)c(-c3ccccc3)c1CCS2(=O)=O | > 100 µM (inactive) | > 100 µM (inactive) | > 100 µM (inactive) | > 100 µM (inactive) | 28.8 µM (inactive) | > 100 µM (inactive) | 44.1 | 44.9 µM (inactive) | 45.8 µM (inactive) | 23.1 µM (inactive) | 20.8 µM (inactive) | 46.5 µM (inactive) | > 100 µM (inactive) | > 100 µM (inactive) | 32.5 µM (inactive) | 29.5 µM (inactive) | – | 38.5 µM (inactive) | 26.4 µM (inactive)
15 | Cc1cc(N=C2C=C(Br)C(=O)C(Br)=C2)cc(CN(CC(=O)O)CC(=O)O)c1O | > 100 µM (inactive) | > 100 µM (inactive) | > 100 µM (inactive) | > 100 µM (inactive) | > 100 µM (inactive) | > 100 µM (inactive) | > 100 | > 100 µM (inactive) | > 100 µM (inactive) | > 100 µM (inactive) | > 100 µM (inactive) | > 100 µM (inactive) | > 100 µM (inactive) | – | > 100 µM (inactive) | > 100 µM (inactive) | > 100 µM (inactive) | > 100 µM (inactive) | –
16 | Cc1cc(O)c2c(c1O)C(=O)c1cccc(O)c1C2=O [ISLANDICIN] | > 100 µM (inactive) | > 100 µM (inactive) | > 100 µM (inactive) | > 100 µM (inactive) | – | > 100 µM (inactive) | > 100 | > 100 µM (inactive) | > 100 µM (inactive) | > 100 µM (inactive) | > 100 µM (inactive) | > 100 µM (inactive) | > 100 µM (inactive) | > 100 µM (inactive) | > 100 µM (inactive) | > 100 µM (inactive) | > 100 µM (inactive) | > 100 µM (inactive) | > 100 µM (inactive)
